Active and inactive are the calls of the source.
Assays:
[1] = P. falciparum late gametocyte killing, dose response, luminescence (AID 1117278); format: functional, cell-based;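 further: gametocytes exposed to compound for 24 hours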
[2] = Jurkat T cell cytotoxicity, dose response, cytotoxicity control for P. falciparum gametocyte viability project, luminescence (AID 1117277); format: functional, cell-based;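 further: potency reflects loss of cellular ATP meaning fewer viable cells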
[3] = biological target: Heat shock protein HSP 90-alpha (Homo sapiens, UniProt P07900); assay: Luminescence-based dose response biochemical high throughput screening assay for inhibitors of the Heat Shock Protein 90 (HSP90). [Related pubchem assays: 1831 (Summary AID.), 1846 (Confirmation screen.), 1789 (Primary screen.)]
[4] = growth suppression of PTEN-null colon cells, dose response, cell-based, HCT116 PTEN knockout (AID 1047); format: functional;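 further: HCT116 colon tumor cells with PTEN knocked out; cells exposed to compound for 60 hours before readout; potency for loss of cell viability measured by luminescence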
[5] = growth suppression of beta-catenin-knockout colon cells, dose response, cell-based, HCT116, human colon tumor (AID 1045); format: functional;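 further: HCT116 colon tumor cells with beta catenin knocked out; cells exposed to compound for 60 hours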
[6] = ADAM10 protease inhibitors, dose response, selectivity assay for ADAM17 exosite inhibitor project, biochemical, FRET peptide substrate, recombinant human ADAM10 (AID 743259);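 further: ADAM10 enzyme cleaving a FRET peptide substrate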
[7] = biological target: Disintegrin and metalloproteinase domain-containing protein 17 (Homo sapiens, UniProt P78536); assay: exosite inhibitors of ADAM17, dose response, biochemical (AID 743260)
INS1 = assay: beta cell apoptosis inhibitors, cytokine rescue, dose response, luminescence, retest (AID 449756); format: functional, cell-based; conditions: Rattus norvegicus;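 further: cell death triggered by IL-1 beta plus TNF-alpha plus IFN-gamma mixture; protective hits raise ATP signal compared with cytokine alone wells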
Caspase-6 = biological target: T1, Caspase-6 (Homo sapiens, UniProt P55212); assay: human caspase-6 inhibitors, dose response, biochemical, VEID-R110 fluorescence, cherry-pick (AID 720632)
T1 sequence (P55212 whole entry): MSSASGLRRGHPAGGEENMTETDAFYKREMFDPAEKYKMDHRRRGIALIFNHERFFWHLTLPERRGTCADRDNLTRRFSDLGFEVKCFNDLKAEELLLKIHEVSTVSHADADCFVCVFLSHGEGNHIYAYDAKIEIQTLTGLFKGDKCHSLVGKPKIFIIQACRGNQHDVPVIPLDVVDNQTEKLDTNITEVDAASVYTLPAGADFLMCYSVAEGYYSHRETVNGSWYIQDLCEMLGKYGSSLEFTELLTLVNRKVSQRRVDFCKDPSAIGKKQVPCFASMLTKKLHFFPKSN

Nonstructural protein 1 = Nonstructural protein 1 (Influenza A virus, UniProt Q194T2); format: functional, Influenza A virus (A/California/07/2009(H1N1))
[8] = biological target: T2, Heat shock factor protein 1 (Mus musculus, UniProt P38532); assay: HSF1 potentiators in luciferase reporter cells, confirmation, cell-based, NIH3T3, luminescence, dose retest (AID 435004); format: functional;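 further: stress induced by proteasome inhibitor MG132 added 30 min after compound; luciferase reporter driven by HSF1 response element in NIH3T3 cells; actives raise luminescence as potentiators of the MG132 stress response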
T2 sequence (P38532 whole entry): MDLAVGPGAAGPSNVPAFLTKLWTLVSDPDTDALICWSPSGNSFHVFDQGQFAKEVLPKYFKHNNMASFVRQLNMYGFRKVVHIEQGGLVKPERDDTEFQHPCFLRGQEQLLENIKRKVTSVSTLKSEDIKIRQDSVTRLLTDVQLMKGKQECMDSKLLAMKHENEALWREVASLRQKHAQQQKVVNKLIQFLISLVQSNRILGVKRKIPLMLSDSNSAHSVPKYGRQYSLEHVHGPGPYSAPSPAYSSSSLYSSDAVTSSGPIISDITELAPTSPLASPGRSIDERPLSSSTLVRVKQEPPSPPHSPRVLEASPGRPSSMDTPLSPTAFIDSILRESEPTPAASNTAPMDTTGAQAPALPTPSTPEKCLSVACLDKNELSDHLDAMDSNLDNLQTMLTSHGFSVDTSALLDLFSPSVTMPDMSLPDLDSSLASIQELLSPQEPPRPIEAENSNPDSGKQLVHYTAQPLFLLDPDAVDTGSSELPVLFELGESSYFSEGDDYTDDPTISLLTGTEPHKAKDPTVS

[9] = inhibitors of PGC1a acetylation in cells, dose response, cell-based, cherry-picked samples (AID 720514); format: functional;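 further: potency may reflect raised or lowered acetylation signal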
[10] = THP-1 cell cytotoxicity, dose response, cytotoxicity control for Vif-APOBEC3G degradation inhibitor project, THP-1 cells (AID 1117359); format: functional; conditions: Human immunodeficiency virus 1, THP-1
[11] = inhibitors of Vif binding to APOBEC3G peptide, primary screen, biochemical, TR-FRET, GST-Vif 1-94, biotin-A3G peptide, dose response retest (AID 1117319); format: functional;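 further: TR-FRET signal of purified GST-Vif binding a biotinylated A3G peptide; inhibitors lower the FRET signal by blocking Vif and A3G binding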
Protein RecA = biological target: T3, Protein RecA (Mycobacterium tuberculosis, UniProt P9WHJ3); assay: Fluorescence Cell-Free Homogeneous Dose Retest to Identify Inhibitors of RecA-Intein Splicing Activity. [Related pubchem assays (depositor defined):AID2097, AID2223, AID489010, AID492950]; format: functional
T3 sequence (P9WHJ3 whole entry): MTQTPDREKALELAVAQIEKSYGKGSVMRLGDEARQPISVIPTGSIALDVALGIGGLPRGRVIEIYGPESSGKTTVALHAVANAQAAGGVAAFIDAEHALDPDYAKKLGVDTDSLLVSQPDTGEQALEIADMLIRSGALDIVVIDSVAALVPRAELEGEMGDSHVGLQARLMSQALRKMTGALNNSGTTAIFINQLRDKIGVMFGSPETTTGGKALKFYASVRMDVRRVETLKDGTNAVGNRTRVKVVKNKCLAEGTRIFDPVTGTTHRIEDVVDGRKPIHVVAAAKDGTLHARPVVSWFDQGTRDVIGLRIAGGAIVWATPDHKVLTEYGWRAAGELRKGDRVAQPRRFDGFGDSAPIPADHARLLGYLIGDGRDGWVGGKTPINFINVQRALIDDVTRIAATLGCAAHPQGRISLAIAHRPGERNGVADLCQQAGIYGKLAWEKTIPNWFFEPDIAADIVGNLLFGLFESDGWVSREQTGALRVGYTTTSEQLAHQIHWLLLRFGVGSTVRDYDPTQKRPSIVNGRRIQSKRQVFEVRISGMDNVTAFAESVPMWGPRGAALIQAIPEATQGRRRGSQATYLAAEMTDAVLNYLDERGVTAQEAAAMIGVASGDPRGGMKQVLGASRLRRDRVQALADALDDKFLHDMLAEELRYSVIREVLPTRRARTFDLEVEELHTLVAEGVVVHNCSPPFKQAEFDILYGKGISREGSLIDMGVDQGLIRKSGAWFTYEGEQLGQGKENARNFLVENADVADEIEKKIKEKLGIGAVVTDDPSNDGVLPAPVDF

[12] = biological target: T4, Replicative DNA helicase DnaB (Mycobacterium tuberculosis, UniProt P9WMR3); assay: DnaB intein splicing inhibitors, dose response, biochemical, cell-free fluorescence (AID 449749); format: functional
T4 sequence (P9WMR3 whole entry): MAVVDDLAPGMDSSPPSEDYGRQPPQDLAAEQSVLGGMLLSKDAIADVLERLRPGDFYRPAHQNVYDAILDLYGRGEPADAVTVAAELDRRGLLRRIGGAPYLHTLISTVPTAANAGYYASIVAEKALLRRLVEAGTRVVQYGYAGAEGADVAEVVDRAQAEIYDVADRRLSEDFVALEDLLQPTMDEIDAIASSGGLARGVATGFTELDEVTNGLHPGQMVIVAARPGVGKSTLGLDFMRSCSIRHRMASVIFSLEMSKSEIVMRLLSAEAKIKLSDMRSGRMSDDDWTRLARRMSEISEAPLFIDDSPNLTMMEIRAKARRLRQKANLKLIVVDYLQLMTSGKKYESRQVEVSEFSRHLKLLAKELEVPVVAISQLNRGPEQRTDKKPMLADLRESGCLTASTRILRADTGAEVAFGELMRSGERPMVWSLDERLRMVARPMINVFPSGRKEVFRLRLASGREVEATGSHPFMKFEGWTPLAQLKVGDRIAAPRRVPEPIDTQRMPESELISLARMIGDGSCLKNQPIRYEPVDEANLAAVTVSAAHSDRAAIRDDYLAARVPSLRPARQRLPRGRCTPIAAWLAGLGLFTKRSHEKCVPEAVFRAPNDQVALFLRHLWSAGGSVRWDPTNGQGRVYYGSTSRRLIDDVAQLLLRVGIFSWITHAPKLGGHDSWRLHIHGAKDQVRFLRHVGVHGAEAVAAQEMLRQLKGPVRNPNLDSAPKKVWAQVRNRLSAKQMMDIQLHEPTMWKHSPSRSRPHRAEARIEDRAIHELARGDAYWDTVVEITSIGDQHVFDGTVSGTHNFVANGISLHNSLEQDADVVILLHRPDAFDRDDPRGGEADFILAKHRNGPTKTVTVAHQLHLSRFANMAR

[13] = inhibitors of HIV Env-driven cell fusion, dose response, cherry-pick (AID 652057); format: functional, cell-based
[14] = ZM109 Env clade C HIV-1 fusion inhibitors, dose response, HeLa effector, CEM target cells, luciferase, cherry-pick (AID 652058); format: functional, cell-based
[15] = inhibitors of clade B AD8 Env fusion, dose response, cell-based, cherry-pick (AID 652062); format: functional;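 further: luciferase signal from cell-cell fusion driven by HIV-1 clade B AD8 Env; potency is for inhibitors of fusion seen as a drop in luminescence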
[16] = Luminescence Cell-Based Dose Retest to Confirm Inhibitors of Cancer Stem Cells. [Related pubchem assays (depositor defined):AID2717, AID2721]; format: functional; conditions: Homo sapiens

Chain of Disintegrin and metalloproteinase domain-containing protein 17 (P78536 whole entry, the tested form may be a part): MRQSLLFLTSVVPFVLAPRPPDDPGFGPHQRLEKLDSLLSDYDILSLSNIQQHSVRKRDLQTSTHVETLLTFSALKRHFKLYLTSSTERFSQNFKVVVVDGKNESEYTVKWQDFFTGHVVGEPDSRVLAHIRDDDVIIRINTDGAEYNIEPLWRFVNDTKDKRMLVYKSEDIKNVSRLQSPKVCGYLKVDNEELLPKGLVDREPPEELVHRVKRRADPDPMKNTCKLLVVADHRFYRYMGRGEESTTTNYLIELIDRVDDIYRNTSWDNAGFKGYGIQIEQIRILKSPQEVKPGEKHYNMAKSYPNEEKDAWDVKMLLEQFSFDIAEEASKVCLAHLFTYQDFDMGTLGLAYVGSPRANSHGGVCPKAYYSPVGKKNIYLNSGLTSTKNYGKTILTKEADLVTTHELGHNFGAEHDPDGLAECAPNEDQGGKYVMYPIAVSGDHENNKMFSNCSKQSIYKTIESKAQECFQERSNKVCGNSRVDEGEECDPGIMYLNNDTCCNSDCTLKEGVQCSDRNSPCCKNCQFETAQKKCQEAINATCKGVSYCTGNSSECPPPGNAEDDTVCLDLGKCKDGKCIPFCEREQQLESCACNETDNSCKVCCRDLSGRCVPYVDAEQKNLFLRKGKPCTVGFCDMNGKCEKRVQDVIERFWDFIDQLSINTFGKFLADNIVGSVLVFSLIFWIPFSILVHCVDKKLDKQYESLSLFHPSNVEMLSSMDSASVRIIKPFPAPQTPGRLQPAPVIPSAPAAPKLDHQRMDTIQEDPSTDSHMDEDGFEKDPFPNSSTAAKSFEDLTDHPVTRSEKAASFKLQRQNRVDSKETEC
Chain of Nonstructural protein 1 (Q194T2 whole entry): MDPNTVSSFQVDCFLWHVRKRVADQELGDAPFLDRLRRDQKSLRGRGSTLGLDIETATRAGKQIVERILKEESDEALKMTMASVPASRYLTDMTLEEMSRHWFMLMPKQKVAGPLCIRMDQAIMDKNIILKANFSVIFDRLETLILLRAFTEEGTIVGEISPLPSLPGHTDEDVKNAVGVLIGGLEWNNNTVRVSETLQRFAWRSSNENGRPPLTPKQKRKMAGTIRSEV

In the case of `Cc1cc(C)n(-c2ccc(C(=O)NCc3cccs3)cc2)n1`, the IC50 [1] was > 109 µM (inactive) and the IC50 [2] was > 83.3 µM (inactive).

For `CCC(C)c1ccc(OCc2ccc(C(=O)OC)o2)cc1` (stereo not given), the IC50 [3] was 2.29 µM (active).

With `CCc1ccc(-c2nc(CN3CCC(C(=O)NCCN(CC)c4ccccc4)CC3)c(C)o2)cc1` the EC50 [4] was 7.82 µM (active) and the EC50 [5] was 6.8 µM (active).

In the case of `Cc1ccc(-c2csc3ncn(CC(=O)N4CCOCC4)c(=O)c23)cc1`, the IC50 [1] was > 109 µM (inactive) and the IC50 [2] was > 83.3 µM (inactive).

For `CC1=NN(c2ccccc2)C(=O)/C1=C\N(O)c1ccccc1`, the IC50 [3] was 2.78 µM (active).

For `Cc1cccc(C)c1NC1=NC(=S)N(c2ccc(C(=O)O)cc2)C12CCCCC2`, the IC50 [1] was > 109 µM (inactive) and the IC50 [2] was > 83.3 µM (inactive).

For `Nc1cc(OC(=O)c2c(F)cccc2Cl)nn1S(=O)(=O)c1ccccc1`, the IC50 [6] was > 69.5 µM (inactive) and the IC50 [7] was > 69.5 µM (inactive).

With `CC(=O)CSc1ccc(-c2nc3ccccc3[nH]2)cn1` the AC50 (INS1) was 5.24 µM (active) and the IC50 [3] was 8.09 µM (active).

With `CNS(=O)(=O)c1cccc(C(=O)OCC(=O)N2c3ccccc3NC(=O)C2(C)C)c1` the AC50 (Caspase-6) was 3 µM (active).

In the case of `COc1ccc(S(=O)(=O)NCC(c2ccco2)N2CCc3ccccc32)cc1` (stereo not given), the IC50 [6] was 38.4 µM (inactive) and the IC50 [7] was > 69.5 µM (inactive).

In the case of `CCOc1ccc(CNc2ccc(N3CCN(Cc4ccccc4)CC3)cc2)cc1`, the IC50 (Nonstructural protein 1) was 49.6 µM (active) and the EC50 [8] was > 260 µM (inactive).

In the case of `O=S(=O)(Nc1ccncc1)c1ccccc1`, the IC50 [1] was > 109 µM (inactive) and the IC50 [2] was > 83.3 µM (inactive).

For `Brc1ccc2nc(N3CCN(c4ccccc4)CC3)sc2c1`, the IC50 [1] was > 109 µM (inactive) and the IC50 [2] was > 83.2 µM (inactive).

For `Cc1nc(Nc2ccc(S(N)(=O)=O)cc2)sc1C(=O)Nc1ccccc1`, the AC50 [9] was 3.05 µM (active) and the CC50 [10] was > 40 µM (active).

For `CC1(O)N(Cc2ccccc2)C(=O)OC12CCCCC2` (stereo not given), the IC50 [6] was > 69.5 µM (inactive) and the IC50 [7] was > 69.5 µM (inactive).

With `O=C(O)c1ccc(COc2c(F)c(F)c(F)c(F)c2F)o1` the IC50 [11] was > 100 µM (active).

For `Clc1cccc(-c2cc3nc4c(c(N5CCNCC5)n3n2)CCCC4)c1`, the EC50 [4] was 8.22 µM (active) and the EC50 [5] was 7.97 µM (active).

In the case of `COc1ccc(/C=C/c2noc(-c3ccccc3OC(C)=O)n2)cc1`, the IC50 [3] was 3.29 µM (active).

For `Cc1ccc2c(c1)-c1c(ssc1=S)C(C)(C)N2C(=O)CSC1=NCCS1`, the IC50 (Nonstructural protein 1) was 24.9 µM (active), the EC50 (Protein RecA) was 9.8 µM (active) and the AC50 [12] was 28.3 µM (active).

With `COc1ccc(CC(=O)OCC(=O)NCc2ccco2)cc1OC` the IC50 [11] was > 100 µM (active) and the CC50 [10] was > 40 µM (active).

With `O=C(CCN1CCOCC1)NCC(=O)Nc1ccc(Br)cc1C(=O)c1ccccc1` the IC50 [11] was > 100 µM (active).

In the case of `CN(CCc1ccccc1)C(=O)c1ccc(NC(=O)Cc2ccc(NC(=O)C3CCN(C(=O)CCc4ccccc4)CC3)cc2)cc1`, the CC50 [10] was > 40 µM (active).

With `Cc1ccc2c(c1)[C@H]1[C@H](CO2)[C@H](c2ccccc2)[C@]2(C)C(=O)N(Cc3ccc(Cl)cc3)CC(=O)N12` the IC50 [6] was > 69.5 µM (inactive) and the IC50 [7] was > 69.5 µM (inactive).

For `COc1ccccc1NC(=O)N[C@@H]1C=C[C@H](CC(=O)N[C@H](C)c2ccccc2)O[C@H]1CO`, the AC50 [13] was 8.31 µM (active), the AC50 [14] was 7.16 µM (active) and the AC50 [15] was 6.98 µM (active).

In the case of `O=C(C[C@@H]1CC[C@H]2[C@@H](COC[C@@H](O)CN2Cc2ccc(Oc3ccccc3)cc2)O1)N1CCN(c2ccccc2)CC1`, the AC50 [13] was 22.3 µM (active), the AC50 [14] was 20.4 µM (active) and the AC50 [15] was 4.07 µM (active).

For `Cc1ccc(S(=O)(=O)N(CC(=O)N/N=C/c2cccc3c2OCCO3)c2ccccc2F)cc1`, the IC50 [11] was > 100 µM (active).

For `O=C(Nc1cccc(-c2csc(-c3ccccc3)n2)c1)c1cccs1`, the IC50 [6] was > 69.5 µM (inactive), the AC50 [16] was 3.38 µM (active) and the IC50 [7] was > 69.5 µM (inactive).

Source: ChEMBL document CHEMBL1201862, “PubChem BioAssay data set” (2004)
